# Earlier results, collected in US20100104634A1, “PHARMACEUTICAL COMPOSITIONS OF ENTACAPONE” (priority 2006, published 2010).
# Settings: low solubility, low dissolution rate, low bioavailability
compound,measurement,value
"CCN(CC)C(=O)/C(C#N)=C/c1cc(O)c(O)c([N+](=O)[O-])c1 [Entacapone, (E)-2-cyano-3-(3,4-dihydroxy-5-nitrophenyl)-N,N-diethyl-2-propenamide]",Biopharmaceutics Classification system (BCS) class,class IV
